Test results: US5445951A, “Regioselective enzymatic deacylation of sucrose esters in anhydrous organic media” (priority 1993, dated 1995)

What was measured:
[1] = system: lipase AY 30; assay: Effect of the solvent on lipase AY 30 SOA deacetylation; assay type: biochemical, Candida cylindracea; conditions: lipase AY 30, solvent as labelled, 24 hrs
Protocol: Identical enzyme catalyzed SOA deacetylations were run in numerous anhydrous solvents. After 24 hrs incubation an aliquot was analyzed by HPLC.
(§1) Enzyme and Solvent Screening for SOA Deacetylation. A scintillation vial was charged successively with 100 mg of powdered enzyme as received or prepared as described and 1.0 ml of 20 mM sucrose octaacetate (SOA) dissolved in an organic solvent. Following a 5 sec sonication, the vial was incubated in a controlled-temperature shaker at 45° C. and 300 RPM for 24 hrs. A 200 μl aliquot of the reaction mixture was withdrawn and centrifuged. The supernatant was collected and evaporated under a stream of N2. The residue was reconstituted in 200 μl of acetonitrile and 10 μl of this solution was analyzed by HPLC.

[2] = assay type: physicochemical; conditions: estimated from known log P values / increments
Text: ^a) log P is a measurement of the solvent hydrophobicity (logarithm o
the solvent partition coefficient between noctanol and water [Rekker, "Th
Hydrophobic Fragmental Constant", Elsevier, Amsterdam (1977)]). The log P
values from this table are from Laane et al. , Biotechnol Bioeng. 30,81

[3] = system: protease type XXIII; assay: Effect of the solvent on protease type XXIII catalyzed deacylation of SOP; assay type: biochemical, Aspergillus oryzae; conditions: 24 hrs; for SheptaP's (8.3 min): HPLC peak 8.3 min; for SheptaP's (8.9 min): HPLC peak 8.9 min; for SheptaP's (9.9 min): HPLC peak 9.9 min; for SOP: solvent as labelled
Protocol: (§2) Identical SOP deacylations were performed with lipase AY 30 or protease type XXIII in numerous anhydrous organic solvents, as shown in Tables 12 and 13.
as §1, with “Solvent” for “Enzyme and Solvent”, “screening” for “Screening”, “SOP deacylation.” for “SOA Deacetylation.”, “lipase AY 30” for “powdered enzyme as received”, “protease type XXIII” for “prepared”, “octapropionate (SOP) and 200mM butanol” for “octaacetate (SOA)”

[4] = system: lipase AY 30; assay: Effect of the solvent on lipase AY 30 catalyzed deacylation of SOP; assay type: biochemical, Candida cylindracea; conditions: for ShexaP (4.2 min) / SheptaP's (8.9 min) / SheptaP's (9.4 min) / SheptaP's ([…]): lipase AY 30, 24 hrs; for ShexaP (4.2 min): HPLC peak 4.2 min; for SheptaP's (8.9 min): HPLC peak 8.9 min; for SheptaP's (9.4 min): HPLC peak 9.4 min; for SheptaP's ([…]): HPLC peak […]; for SOA: lipase AY 30, solvent as labelled, 200 mM butanol, 24 hrs, peak 21.4 min; for SheptaP's ([…]): HPLC peak 8.2 min
Protocol: as §2
as §1, with “Solvent” for “Enzyme and Solvent”, “screening” for “Screening”, “SOP deacylation.” for “SOA Deacetylation.”, “lipase AY 30” for “powdered enzyme as received”, “protease type XXIII” for “prepared”, “octapropionate (SOP) and 200mM butanol” for “octaacetate (SOA)”

[5] = biological target: T1, alcalase (Bacillus licheniformis, UniProt P00780); assay: Nucleophile screening for alcalase catalyzed deacetylation of SOA in diisopropyl ether; assay type: biochemical; conditions: nucleophile 200 mM, peak height ratio 1'-OH / 6'-OH heptaacetate
T1 construct: purchased Novo Nordisk (gift)
T1 sequence (P00780 106-379): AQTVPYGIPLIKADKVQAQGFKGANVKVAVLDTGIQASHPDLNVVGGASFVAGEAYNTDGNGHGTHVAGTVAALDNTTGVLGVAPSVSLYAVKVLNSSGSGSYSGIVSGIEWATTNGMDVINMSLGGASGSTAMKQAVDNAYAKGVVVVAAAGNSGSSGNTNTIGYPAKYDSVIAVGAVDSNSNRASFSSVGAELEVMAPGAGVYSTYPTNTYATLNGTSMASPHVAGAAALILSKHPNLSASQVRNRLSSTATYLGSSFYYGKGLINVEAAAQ
Protocol: (§3) Nucleophile screening for alcalase, proleather or lipase AP 12 catalyzed deacetylation of SOA. A scintillation vial was charged successively with 100 mg of powdered enzyme prepared as described, 1.0 ml of 20 mM sucrose octaacetate (SOA) and 200 mM of the nucleophile dissolved in diisopropyl ether. Following a 5 sec sonication, the vial was incubated in a controlled-temperature shaker at 45° C. and 300 RPM for 66 hrs. A 200 μl aliquot of the reaction mixture was withdrawn and centrifuged. The supernatant was collected and evaporated under a stream of N2. The residue was reconstituted in 200 μl of acetonitrile and 10 μl of this solution was analyzed by HPLC. For screening concentration effects on enzyme activity, the same protocol was followed except the nucleophile concentration was varied from 0 to 2000 mM.

[6] = system: lipase AP 12; assay: Nucleophile screening for lipase AP 12 catalyzed deacetylation of SOA in diisopropyl ether; assay type: biochemical, Aspergillus niger; conditions: lipase AP 12, nucleophile 200 mM, 66 hrs
Protocol: as §3

[7] = system: proleather; assay: Nucleophile screening for proleather catalyzed deacetylation of SOA in diisopropyl ether; assay type: biochemical, Bacillus subtilis; conditions: nucleophile 200 mM; for % conv: 66 hrs; for regiochem: peak height ratio 1'-OH / 6'-OH heptaacetate
Protocol: as §3

[8] = as obtained from supplier; cited from earlier work
[9] = SOP hydrolytic enzyme screen in heptane with n-butanol; assay type: biochemical; conditions: 24 hrs; for SheptaP's ([…]): HPLC peak […]; for SOP: residual SOP; for SheptaP's ([…]): HPLC peak 8.2 min
Protocol: To extend the scope and utility of this study, sucrose octapropionate was synthesized and used as substrate in enzyme catalyzed deacylation reactions. […] The hydrolytic enzymes were screened for their capability to deacylate SOP in heptane with n-butanol as the nucleophile. After 24 hrs incubation aliquots were analyzed by HPLC.
as §1, with “screening” for “and Solvent Screening”, “SOP deacylation in heptane.” for “SOA Deacetylation.”, “octapropionate (SOP) and 200 mM butanol” for “octaacetate (SOA)”, “and” for “and evaporated under a stream of N2. The residue was reconstituted in 200 μl of acetonitrile and”

[10] = Activity and regioselectivity of enzymes for SOA deacetylation; assay type: biochemical; conditions: for regioselectivity of SOA deacetylation: in words
Protocol: An important aspect of this work was to assign, unequivocally, the structures of all sucrose hepta-, hexa-, and pentaacetates obtained by enzymatic deacetylation of SOA. These structures were assigned by perdeuterioacetylation followed by ^1 H-NMR, as described by Rathbone E. B., Carbohydr. Res., 205,402 (1990).
HPLC analysis. Routine screening was performed on a Supelcosil LC-18-DB column (150×4.6 mm, 5μ) using an isocratic mode with either acetonitrile/water (35/65) or acetonitrile/water (60/40) as eluant for reactions involving sucrose octaacetate (SOA) and sucrose octapropionate (SOP), respectively. All flow rates were 1.0 ml/min with UV detection at 220 nm. To identify all products from SOA deacetylation, a gradient mode was employed using 15% to 35% acetonitrile in water over 40 minutes followed by 35/65 acetonitrile/water isocratic elution for 20 minutes. To screen nucleophiles for SOA deacetylation, an isocratic elution mode was employed using 30/70 acetonitrile/water for 16 min followed by a gradient from 30% to 35% acetonitrile in water over 5 min and finally isocratic elution using 35/65 acetonitrile/water for 16 min. To assess the enzyme regiochemistry for SOA deacetylation, an isocratic elution mode was employed using 25/75 acetonitrile/water for 55 minutes.
Identification of the Sucrose Hepta, Hexa or Pentaacetates Obtained Enzymatically. The fraction of sucrose hepta, hexa or pentaacetates were identified as follows. The compound(s) of interest was dissolved in 1.0 ml 99.0 atom % pyridine--d5 followed by addition of 1.0 ml 99 +atom % acetic anhydride--d6. The resulting solution was shaken at 45° C. and 300 RPM for several hours until TLC analysis (silica gel, 9/1 CHCl3 /MeOH) indicated complete reaction. The reaction mixture was evaporated in vacuo and the residue washed several times with water to remove residual pyridine-d5 and/or acetic anhydride-d6. The resulting oily solid was dissolved in 5 ml off chloroform and passed through Whatmann 12.5 cm 1 PS silicone treated filter paper to remove water.
(§4) The pH of commercial powdered enzymes was adjusted in the following way: The enzyme (3 g) was dissolved in 25 ml of an appropriate buffer and the pH adjusted with dilute NaOH or citric/phosphoric acid solution. Cold acetone (37.5 ml at -20° C.) was added and the precipitate collected on a medium porosity glass funnel and dried overnight at 2 millitorr. The protein pellet was ground to a fine powder and equilibrated at 4° C. over saturated aqueous potassium carbonate (RH: 43%) for 24 hrs.
as §1

[11] = SOA deacetylation catalyzed by pH precipitated enzymes in diisopropyl ether; assay type: biochemical
Protocol: A wide variety of hydrolytic enzymes were initially screened for their ability to regioselectively deacetylate SOA in organic solvents. […] Enzyme activity is dependent upon the presence of a minimum shell of water surrounding the enzyme. […] It is known that one way to improve the catalytic power of an enzyme in organic solvent is to use it in the right ionic state.
as §4, §1

[12] = SOP deacylation catalyzed by pH precipitated enzymes in diisopropyl ether; assay type: biochemical
Protocol: To increase the number and/or activities of enzymes active with SOP, pH precipitation experiments, as described for SOA, were undertaken.
as §4

[13] = HPLC sucrose heptaacetate peak height
[14] = diisopropyl ether, 24 hrs incubation, HPLC

Molecule: CC1(C)CCC(C)(C)O1 [2,2,5,5-tetramethyl THF, 2,2,5,5-tetramethyltetrahydrofuran]
- SOA [1]: 68.4%
- SheptaA [1]: 31.6%
- log P [2]: 2.5

Molecule: CC1CCC(C)O1 (stereo not shown) [2,5-dimethyl THF, 2,5-dimethyltetrahydrofuran]
- SOA [1]: 96.2%
- SheptaA [1]: 3.8%
- ShexaA [1]: 0%
- log P [2]: 1.5

Molecule: CC1CCCO1 (stereo not shown) [2-methyl THF, 2-methyltetrahydrofuran]
- SOA [1]: 96.2%
- SheptaA [1]: 3.8%
- ShexaA [1]: 0%
- log P [2]: 1.0

Molecule: CC(C)=O [acetone]
- SOA [1]: 98.6%
- SheptaA [1]: 1.4%
- ShexaA [1]: 0%
- SheptaP's (8.3 min) [3]: 0.7%
- SheptaP's (8.9 min) [3]: 0%
- SheptaP's (9.9 min) [3]: 0.2%
- SOP [3]: 99.1%
- ShexaP (4.2 min) [4]: 0%
- SheptaP's (8.9 min) [4]: 0%
- SheptaP's (9.4 min) [4]: 0.1%
- SheptaP's ([…]) [4]: 1.2%
- SOA [4]: 98.7%

Molecule: CC#N [acetonitrile]
- SOA [1]: 98.6%
- SheptaA [1]: 1.4%
- ShexaA [1]: 0%
- SheptaP's (8.3 min) [3]: 1.1%
- SheptaP's (8.9 min) [3]: 0%
- SheptaP's (9.9 min) [3]: 0.5%
- SOP [3]: 98.4%
- ShexaP (4.2 min) [4]: 0%
- SheptaP's (8.9 min) [4]: 0%
- SheptaP's (9.4 min) [4]: 0.2%
- SheptaP's ([…]) [4]: 1.1%
- SOA [4]: 98.7%

Molecule: CCC(C)=O [butanone]
- SheptaP's (8.3 min) [3]: 1.0%
- SheptaP's (8.9 min) [3]: 0%
- SheptaP's (9.9 min) [3]: 0.2%
- SOP [3]: 98.8%
- ShexaP (4.2 min) [4]: 0%
- SheptaP's (8.9 min) [4]: 0%
- SheptaP's (9.4 min) [4]: 0.2%
- SheptaP's ([…]) [4]: 0.9%
- SOA [4]: 98.9%

Molecule: OC1CCCCC1 [cyclohexanol]
- regiochem [5]: 8.0
- % conv [6]: 25.0%
- SOA [1]: 96.8%
- SheptaA [1]: 2.9%
- ShexaA [1]: 0.3%
- % conv [7]: 38.2%
- regiochem [7]: 3.9

Molecule: CCOCCOCC [ethylene glycol diethyl ether]
- SOA [1]: 85.0%
- SheptaA [1]: 13.5%
- ShexaA [1]: 1.5%
- log P [2]: 0.87

Molecule: CCCO [propanol]
- regiochem [5]: 8.8
- % conv [6]: 26.2%
- % conv [7]: 46.4%
- regiochem [7]: 5.3

Molecule: bromelain
- enzyme activity [8]: 22.9 U/mg
- SheptaP's (9.6 min) ([9]; HPLC peak 9.6 min): 0.3
- SheptaP's ([…]) [9]: 0.7
- SOP [9]: 99.0%

B1: alcalase: Novo Nordisk, Bacillus licheniformis (protein, UniProt P00780 106-379, looked up)
Subtilisin Carlsberg: T1 sequence (P00780 106-379)
- regiochemistry 1'OH [10, 13]: 13
- regiochemistry 6'OH [10, 13]: 2
- buffer pH (optimal pH for enzyme activity in anhydrous diisopropyl ether) ([10]; SOA deacetylation): 9.0
- regioselectivity of SOA deacetylation [10]: primarily at 1'- position with some reaction occurring at the 6'- position
- regioselectivity of SOA deacetylation ([10]; listed as Alcalase): at the 1' position and secondarily at the 6' position
- % conv ([10]; total of all sucrose hepta and hexa acetates): 28.1%
- buffer pH (optimal pH for enzyme activity in anhydrous solvents) ([11]; SOA deacetylation): 9.0
- SheptaAs [11, 14]: 39.7%
- ShexaAs [11, 14]: 10.9%
- SOA ([11]; residual SOA, diisopropyl ether, 24 hrs incubation, HPLC): 49.4%
- buffer pH (optimal pH for enzyme activity in anhydrous media) ([12]; SOP deacylation): 9.0
- SOP ([12]; diisopropyl ether, 24 hrs): 81.8%
- SheptaP's ([12]; diisopropyl ether, 24 hrs): 15.9%
- ShexaP's ([12]; diisopropyl ether, 24 hrs): 2.3%
- capability of deacetylating SOP ([12]; pH precipitated, in words): capable of deacetylating SOP

B2: papain: Sigma, Papaya latex (protein, UniProt P00784 134-345, looked up)
Papain: IPEYVDWRQKGAVTPVKNQGSCGSCWAFSAVVTIEGIIKIRTGNLNEYSEQELLDCDRRSYGCNGGYPWSALQLVAQYGIHYRNTYPYEGVQRYCRSREKGPYAAKTDGVRQVQPYNEGALLYSIANQPVSVVLEAAGKDFQLYRGGIFVGPCGNKVDHAVAAVGYGPNYILIKNSWGTGWGENGYIRIKRGTGNSYGVCGLYTSSFYPVKN
- enzyme activity [8]: 2.8 U/mg
- SheptaP's (7.0 min) ([9]; HPLC peak 7.0 min): 0.3
- SheptaP's ([…]) [9]: 0.9
- SOP [9]: 98.8%
